Results as given in patent EP0796090B1, “CROSS-LINKED MICROPARTICLES AND THEIR USE AS T[…]” (Elan Drug Delivery Limited, priority 1994, dated 1996).

System: HSN cell line
Experiment: In vitro cytotoxic activity, MTT assay
Assay type: cell-based, rat
Conditions: HSN cells; for Emax: Rattus norvegicus, read-out: maximum reduction in cell activity
Method: Cytotoxic activity of the drug-microcapsule conjugates of Examples 5 to 7 was measured in vitro. The HSN cell line was used. This is a chemically-induced rat colonic sarcoma, which produces liver tumours in an animal model with a vascular pattern similar to that seen in human colorectal liver metastases. Cell kill was measured indirectly using MTT. This is reduced in active mitochondria to formazan, a coloured metabolite. HSN cells were incubated in multi-well plates to which was added a control dose of drug or drug-microcapsule lysate. After a range of exposure times, MTT was added to the wells and the concentration of formazan measured as an indication of […]. The assay was calibrated for this cell line against a range of known cell numbers.

| Molecule | maximum reduction in cell activity | steepest part of the dose response curve [µg/mL] | Emax [%] |
| --- | --- | --- | --- |
| 2-fluoro-5-deoxyuridine [Example 5-FUdR] | approximately 80% |  |  |
| COc1cccc2c1C(=O)c1c(O)c3c(c(O)c1C2=O)C[C@@](O)(C(=O)CO)C[C@@H]3O[C@H]1C[C@H](N)[C@H](O)[C@H](C)O1 [doxorubicin] |  | ≤ 0.1 | ~80 |
| CN(Cc1cnc2nc(N)nc(N)c2n1)c1ccc(C(=O)N[C@@H](CCC(=O)O)C(=O)O)cc1 [methotrexate] |  |  | ~80 |
